Key:
CCRF-CEM = experiment: Cytotoxicity against human CCRF-CEM cells by SRB assay; assay type: functional
[1] = Cytotoxicity against human HL60(TB) cells by SRB assay; assay type: functional, HL-60(TB); conditions: HL-60
K562 = experiment: Cytotoxicity against human K562 cells by SRB assay; assay type: functional
MOLT-4 = experiment: Cytotoxicity against human MOLT4 cells by SRB assay; assay type: functional
RPMI-8226 = experiment: Cytotoxicity against human RPMI8226 cells by SRB assay; assay type: functional
SR = experiment: Cytotoxicity against human SR cells by SRB assay; assay type: functional
A549 = experiment: Cytotoxicity against human A549 cells by SRB assay; assay type: functional
EKVX = experiment: Cytotoxicity against human EKVX cells by SRB assay; assay type: functional
HOP-62 = experiment: Cytotoxicity against human HOP62 cells by SRB assay; assay type: functional
HOP-92 = experiment: Cytotoxicity against human HOP92 cells by SRB assay; assay type: functional
NCI-H226 = experiment: Cytotoxicity against human NCI-H226 cells by SRB assay; assay type: functional
NCI-H23 = experiment: Cytotoxicity against human NCI-H23 cells by SRB assay; assay type: functional
NCI-H322M = experiment: Cytotoxicity against human NCI-H322M cells by SRB assay; assay type: functional
NCI-H460 = experiment: Cytotoxicity against human NCI-H460 cells by SRB assay; assay type: functional
NCI-H522 = experiment: Cytotoxicity against human NCI-H522 cells by SRB assay; assay type: functional
COLO 205 = experiment: Cytotoxicity against human COLO205 cells by SRB assay; assay type: functional
HCC 2998 = experiment: Cytotoxicity against human HCC2998 cells by SRB assay; assay type: functional
HCT-116 = experiment: Cytotoxicity against human HCT116 cells by SRB assay; assay type: functional
HCT-15 = experiment: Cytotoxicity against human HCT15 cells by SRB assay; assay type: functional
HT-29 = experiment: Cytotoxicity against human HT29 cells by SRB assay; assay type: functional
KM12 = experiment: Cytotoxicity against human KM12 cells by SRB assay; assay type: functional
SW-620 = experiment: Cytotoxicity against human SW620 cells by SRB assay; assay type: functional
SF-268 = experiment: Cytotoxicity against human SF268 cells by SRB assay; assay type: functional
SF-295 = experiment: Cytotoxicity against human SF295 cells by SRB assay; assay type: functional
SNB-19 = experiment: Cytotoxicity against human SNB19 cells by SRB assay; assay type: functional
SNB-75 = experiment: Cytotoxicity against human SNB75 cells by SRB assay; assay type: functional
U-251 = experiment: Cytotoxicity against human U251 cells by SRB assay; assay type: functional
LOX IMVI = experiment: Cytotoxicity against human LOXIMVI cells by SRB assay; assay type: functional
Malme-3M = experiment: Cytotoxicity against human MALME-3M cells by SRB assay; assay type: functional
M14 = experiment: Cytotoxicity against human M14 cells by SRB assay; assay type: functional
SK-MEL-2 = experiment: Cytotoxicity against human SK-MEL-2 cells by SRB assay; assay type: functional
SK-MEL-28 = experiment: Cytotoxicity against human SK-MEL-28 cells by SRB assay; assay type: functional
SK-MEL-5 = experiment: Cytotoxicity against human SK-MEL-5 cells by SRB assay; assay type: functional
UACC-257 = experiment: Cytotoxicity against human UACC257 cells by SRB assay; assay type: functional
UACC-62 = experiment: Cytotoxicity against human UACC62 cells by SRB assay; assay type: functional
IGROV-1 = experiment: Cytotoxicity against human IGROV1 cells by SRB assay; assay type: functional
OVCAR-3 = experiment: Cytotoxicity against human OVCAR-3 cells by SRB assay; assay type: functional
OVCAR-4 = experiment: Cytotoxicity against human OVCAR4 cells by SRB assay; assay type: functional
OVCAR-5 = experiment: Cytotoxicity against human OVCAR5 cells by SRB assay; assay type: functional
OVCAR-8 = experiment: Cytotoxicity against human OVCAR8 cells by SRB assay; assay type: functional
SK-OV-3 = experiment: Cytotoxicity against human SKOV3 cells by SRB assay; assay type: functional
[2] = Cytotoxicity against human 786-O cells by SRB assay; assay type: functional; conditions: 786-0
A498 = experiment: Cytotoxicity against human A498 cells by SRB assay; assay type: functional
ACHN = experiment: Cytotoxicity against human ACHN cells by SRB assay; assay type: functional
CAKI-1 = experiment: Cytotoxicity against human Caki1 cells by SRB assay; assay type: functional
RXF 393 = experiment: Cytotoxicity against human RXF393 cells by SRB assay; assay type: functional
SN12C = experiment: Cytotoxicity against human SN12C cells by SRB assay; assay type: functional
UO-31 = experiment: Cytotoxicity against human UO31 cells by SRB assay; assay type: functional
PC-3 = experiment: Cytotoxicity against human PC3 cells by SRB assay; assay type: functional
DU-145 = experiment: Cytotoxicity against human DU145 cells by SRB assay; assay type: functional
MCF7 = experiment: Cytotoxicity against human MCF7 cells by SRB assay; assay type: functional
[3] = Cytotoxicity against human MCF7/ADR cells by SRB assay; assay type: functional; conditions: NCI/ADR-RES
MDA-MB-231 = experiment: Cytotoxicity against human MDA-MB-231 cells by SRB assay; assay type: functional
[4] = Cytotoxicity against human Hs 578T cells by SRB assay; assay type: functional
MDA-MB-435 = experiment: Cytotoxicity against human MDA-MB-435 cells by SRB assay; assay type: functional
MDA-N = experiment: Cytotoxicity against human MDA-N cells by SRB assay; assay type: functional
BT-549 = experiment: Cytotoxicity against human BT549 cells by SRB assay; assay type: functional
T47D = experiment: Cytotoxicity against human T47D cells by SRB assay; assay type: functional
Leukemia cell = experiment: Cytotoxicity against human Leukemia cells by SRB assay; assay type: functional
NSCLC = experiment: Cytotoxicity against human NSCLC cells by SRB assay; assay type: functional
[5] = Cytotoxicity against human Colon cancer cells by SRB assay; assay type: functional; conditions: Cancer cell lines
[6] = Cytotoxicity against human CNS cancer cells by SRB assay; assay type: functional; conditions: Cancer cell lines
[7] = Cytotoxicity against human melanoma cells by SRB assay; assay type: functional; conditions: Melanoma cell
[8] = Cytotoxicity against human ovarian cancer cells by SRB assay; assay type: functional; conditions: Cancer cell lines
[9] = Cytotoxicity against human prostate cancer cells by SRB assay; assay type: functional; conditions: Cancer cell lines
[10] = Cytotoxicity against human breast cancer cells by SRB assay; assay type: functional; conditions: Cancer cell lines
[11] = Cytotoxicity against human renal cancer cells by SRB assay; assay type: functional; conditions: Cancer cell lines

## C=C1[C@@H](O)C[C@@]23CC[C@@H]4[C@@]5(C)CC[C@@H](OC(C)=O)C(C)(C)[C@@H]5C[C@@H](O[C@@H]5O[C@H](COC(C)=O)[C@@H](O)[C@H](O)[C@H]5O)[C@@]4(C)C2=CC[C@H]3[C@H]1C
CCRF-CEM
  GI50: 2.57 µM
[1]
  GI50: 2.75 µM
K562
  GI50: 3.09 µM
MOLT-4
  GI50: 1.95 µM
RPMI-8226
  GI50: 2.95 µM
SR
  GI50: 2.34 µM
A549
  GI50: 4.79 µM
EKVX
  GI50: 10 µM
HOP-62
  GI50: 12.9 µM
HOP-92
  GI50: 10.7 µM
NCI-H226
  GI50: 6.03 µM
NCI-H23
  GI50: 9.55 µM
NCI-H322M
  GI50: 12.9 µM
NCI-H460
  GI50: 4.27 µM
NCI-H522
  GI50: 7.41 µM
COLO 205
  GI50: 1.78 µM
  TGI: 3.3 µM
HCC 2998
  GI50: 1.58 µM
  TGI: 3.5 µM
HCT-116
  GI50: 3.47 µM
  TGI: 9.8 µM
HCT-15
  GI50: 11.5 µM
  TGI: 27.5 µM
HT-29
  GI50: 2.34 µM
  TGI: 5.9 µM
KM12
  GI50: 1.55 µM
  TGI: 4.8 µM
SW-620
  GI50: 7.24 µM
  TGI: 24.2 µM
SF-268
  GI50: 6.61 µM
SF-295
  GI50: 4.17 µM
SNB-19
  GI50: 5.5 µM
SNB-75
  GI50: 2.19 µM
U-251
  GI50: 2.82 µM
LOX IMVI
  GI50: 3.98 µM
Malme-3M
  GI50: 11.5 µM
M14
  GI50: 3.55 µM
SK-MEL-2
  GI50: 2.09 µM
SK-MEL-28
  GI50: 8.32 µM
SK-MEL-5
  GI50: 6.03 µM
UACC-257
  GI50: 10.2 µM
UACC-62
  GI50: 7.08 µM
IGROV-1
  GI50: 4.79 µM
OVCAR-3
  GI50: 2.82 µM
OVCAR-4
  GI50: 3.98 µM
OVCAR-5
  GI50: 2.09 µM
OVCAR-8
  GI50: 6.61 µM
SK-OV-3
  GI50: 11.7 µM
[2]
  GI50: 5.25 µM
A498
  GI50: 14.8 µM
ACHN
  GI50: 7.08 µM
CAKI-1
  GI50: 13.2 µM
RXF 393
  GI50: 3.98 µM
SN12C
  GI50: 6.03 µM
UO-31
  GI50: 13.8 µM
PC-3
  GI50: 3.47 µM
DU-145
  GI50: 10.7 µM
MCF7
  GI50: 1.51 µM
[3]
  GI50: 17.8 µM
MDA-MB-231
  GI50: 7.76 µM
[4]
  GI50: 4.9 µM
MDA-MB-435
  GI50: 4.79 µM
MDA-N
  GI50: 5.13 µM
BT-549
  GI50: 11.5 µM
T47D
  GI50: 7.24 µM
Leukemia cell
  TGI: 8.7 µM
NSCLC
  TGI: 23.4 µM
[5]
  TGI: 11.3 µM
[6]
  TGI: 16.9 µM
[7]
  TGI: 19.1 µM
[8]
  TGI: 17.6 µM
[9]
  TGI: 18.3 µM
[10]
  TGI: 21.5 µM
[11]
  TGI: 22.1 µM

From ChEMBL document CHEMBL1158870, “Antitumor agents. 180. Chemical Studies and cytotoxic evaluation of cumingianosides and cumindysoside A, antileukemic triterpene glucosides with a 14,18-cycloapotirucallane skeleton” (1997)
